{
  "source": "patent US20240239785A1",
  "about": "“SUBSTITUTED 2-(2,6-DIOXOPIPERIDIN-3-YL)-5-(1-PIPERIDIN-4-YL)ISOINDOLINE-1,3-DIONE DERIVATIVES AND USES THEREOF” (Neomorph, Inc., priority 2021, published 2024)",
  "key": {"IKZF2": {"target": "T1, IKZF2 (Homo sapiens, UniProt Q96SW2+Q9UKS7)", "T1 construct": "endogenous in cells; host or cells: MOLT4 (CRISPR/Cas9 HiBit knock-in at the IKZF2 locus)", "T1 sequence (Q9UKS7 whole entry)": "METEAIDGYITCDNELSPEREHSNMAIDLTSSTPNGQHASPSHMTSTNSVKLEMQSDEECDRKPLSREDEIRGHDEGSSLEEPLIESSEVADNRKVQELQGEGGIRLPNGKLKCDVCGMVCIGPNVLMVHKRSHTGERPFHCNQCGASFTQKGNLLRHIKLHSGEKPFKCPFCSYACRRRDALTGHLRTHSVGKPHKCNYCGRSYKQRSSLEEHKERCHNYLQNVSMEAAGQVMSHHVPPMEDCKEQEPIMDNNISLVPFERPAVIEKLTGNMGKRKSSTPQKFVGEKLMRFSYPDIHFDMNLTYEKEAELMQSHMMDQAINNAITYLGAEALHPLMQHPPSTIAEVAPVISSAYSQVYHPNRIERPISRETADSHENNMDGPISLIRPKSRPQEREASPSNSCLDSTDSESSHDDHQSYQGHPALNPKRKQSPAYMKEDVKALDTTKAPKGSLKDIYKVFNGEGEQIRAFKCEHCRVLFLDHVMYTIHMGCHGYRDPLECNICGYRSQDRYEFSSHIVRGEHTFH", "T1 sequence (Q96SW2 whole entry)": "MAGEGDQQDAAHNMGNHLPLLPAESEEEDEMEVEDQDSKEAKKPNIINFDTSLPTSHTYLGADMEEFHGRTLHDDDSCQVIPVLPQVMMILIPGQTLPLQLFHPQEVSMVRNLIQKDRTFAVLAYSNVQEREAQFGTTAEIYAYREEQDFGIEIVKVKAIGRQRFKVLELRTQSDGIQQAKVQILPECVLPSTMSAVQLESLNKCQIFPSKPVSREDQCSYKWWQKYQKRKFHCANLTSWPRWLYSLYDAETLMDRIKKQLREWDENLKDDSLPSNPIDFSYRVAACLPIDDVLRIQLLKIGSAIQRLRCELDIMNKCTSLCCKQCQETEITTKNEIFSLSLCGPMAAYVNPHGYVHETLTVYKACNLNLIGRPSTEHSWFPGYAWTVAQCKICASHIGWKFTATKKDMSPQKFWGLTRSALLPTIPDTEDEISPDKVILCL", "T1 sequence (Q16531 whole entry partner)": "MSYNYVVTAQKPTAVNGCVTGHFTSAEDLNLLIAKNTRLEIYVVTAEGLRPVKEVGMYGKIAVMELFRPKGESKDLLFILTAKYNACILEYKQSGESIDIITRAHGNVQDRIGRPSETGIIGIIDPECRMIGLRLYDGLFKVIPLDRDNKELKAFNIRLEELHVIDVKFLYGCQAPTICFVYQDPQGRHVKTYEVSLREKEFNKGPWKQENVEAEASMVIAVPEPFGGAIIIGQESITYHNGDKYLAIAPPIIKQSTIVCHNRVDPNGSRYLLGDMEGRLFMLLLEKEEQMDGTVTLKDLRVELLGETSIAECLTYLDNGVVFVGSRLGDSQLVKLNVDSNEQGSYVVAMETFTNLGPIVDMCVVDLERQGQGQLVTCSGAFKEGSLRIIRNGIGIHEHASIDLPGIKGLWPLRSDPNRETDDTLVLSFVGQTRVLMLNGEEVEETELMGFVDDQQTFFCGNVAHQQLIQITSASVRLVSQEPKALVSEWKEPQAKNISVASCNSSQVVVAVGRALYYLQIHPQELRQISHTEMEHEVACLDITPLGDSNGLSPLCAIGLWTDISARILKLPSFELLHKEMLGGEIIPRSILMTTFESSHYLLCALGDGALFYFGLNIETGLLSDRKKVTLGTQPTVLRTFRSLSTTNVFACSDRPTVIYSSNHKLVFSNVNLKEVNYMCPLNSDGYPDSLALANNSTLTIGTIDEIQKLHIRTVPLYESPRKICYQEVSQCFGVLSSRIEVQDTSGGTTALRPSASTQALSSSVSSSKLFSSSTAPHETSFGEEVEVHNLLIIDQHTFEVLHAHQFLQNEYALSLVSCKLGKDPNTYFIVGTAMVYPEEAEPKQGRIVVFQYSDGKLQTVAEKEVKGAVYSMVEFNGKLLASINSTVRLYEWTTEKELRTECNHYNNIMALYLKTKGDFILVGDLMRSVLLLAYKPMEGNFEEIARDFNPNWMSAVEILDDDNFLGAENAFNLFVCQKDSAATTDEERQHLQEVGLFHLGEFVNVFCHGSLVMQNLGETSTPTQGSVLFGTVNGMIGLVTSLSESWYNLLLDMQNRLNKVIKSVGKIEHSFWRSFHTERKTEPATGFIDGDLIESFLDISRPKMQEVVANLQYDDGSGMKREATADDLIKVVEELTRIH", "assay": "MOLT4 IKZF2 HiBit assay", "format": "cell-based", "details": "MOLT4 IKZF2 HiBit cells; for DC50: 6 hours incubation, 10-point dose response from 30 μM; for Dmax at 30 µM: MOLT-4, 6 hr (Dmax), read-out: % reduction of IKZF2 @ 30 μM (6 hr)", "description": "MOLT4 IKZF2 HiBit Assay Protocol:\nThis protocol used MOLT4 cells that were engineered using CRISPR/Cas9-mediated genomic insertion of HiBit, tagged to the N terminus of the IKZF2 coding sequence. Day 1. A 10-point dose response was created starting from 30 μM down to InM using a Tecan D300e. Next was added 8,000 cells/well of the MOLT4 IKZF2 HiBit cells to the compound plate. The compounds plate was incubated for 6 hours. Day 2. Nano-Glo HiBit Lytic Buffer/Nano-Glo HiBit Lytic substrate/LgBit Protein mix was added to each well and the compound plate was incubated for 15 minutes. Finally, luminescence signal was read using a BMG Labtech PHERAstar FSX. Data was normalized to DMSO and graphed using GraphPad Prism to determine the concentration points at which 50% of HiBiT-Helios degradation was achieved by each compound. The extent of degradation (range of luminescence) from the highest to lowest concentration points was calculated to determine Dmax."}, "hERG": {"target": "hERG (Homo sapiens, UniProt Q12809)", "sequence (Q12809 whole entry)": "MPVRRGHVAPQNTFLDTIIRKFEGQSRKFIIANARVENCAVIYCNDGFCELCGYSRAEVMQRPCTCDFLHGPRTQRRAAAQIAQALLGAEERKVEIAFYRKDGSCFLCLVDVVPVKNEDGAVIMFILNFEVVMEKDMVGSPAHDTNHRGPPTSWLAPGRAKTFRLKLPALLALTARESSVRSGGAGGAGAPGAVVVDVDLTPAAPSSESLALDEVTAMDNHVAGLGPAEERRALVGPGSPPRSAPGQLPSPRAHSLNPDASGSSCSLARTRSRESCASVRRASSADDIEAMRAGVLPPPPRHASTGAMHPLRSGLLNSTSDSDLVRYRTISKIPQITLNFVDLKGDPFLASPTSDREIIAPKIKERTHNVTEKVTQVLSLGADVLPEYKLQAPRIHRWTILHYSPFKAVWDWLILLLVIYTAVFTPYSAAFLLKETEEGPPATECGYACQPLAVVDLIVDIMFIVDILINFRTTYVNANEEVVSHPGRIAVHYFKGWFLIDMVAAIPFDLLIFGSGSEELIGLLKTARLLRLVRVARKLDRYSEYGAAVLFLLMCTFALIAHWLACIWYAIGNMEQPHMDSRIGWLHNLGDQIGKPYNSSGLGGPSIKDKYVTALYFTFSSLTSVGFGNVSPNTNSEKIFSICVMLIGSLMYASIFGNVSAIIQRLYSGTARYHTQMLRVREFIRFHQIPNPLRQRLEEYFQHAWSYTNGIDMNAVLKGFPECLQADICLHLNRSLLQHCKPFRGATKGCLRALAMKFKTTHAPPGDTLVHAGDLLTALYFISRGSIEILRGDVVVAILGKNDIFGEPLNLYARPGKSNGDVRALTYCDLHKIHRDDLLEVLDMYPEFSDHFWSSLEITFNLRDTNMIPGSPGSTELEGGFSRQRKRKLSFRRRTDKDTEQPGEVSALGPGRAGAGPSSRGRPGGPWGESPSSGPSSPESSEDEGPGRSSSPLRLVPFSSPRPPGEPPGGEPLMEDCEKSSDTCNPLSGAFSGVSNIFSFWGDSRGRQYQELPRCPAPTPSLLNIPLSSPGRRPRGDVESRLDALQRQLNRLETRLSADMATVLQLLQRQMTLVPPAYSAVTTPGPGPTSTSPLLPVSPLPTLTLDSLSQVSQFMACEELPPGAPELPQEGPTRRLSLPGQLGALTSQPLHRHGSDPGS", "assay": "hERG IC50"}},
  "note": "Counter-ions that a name gives are not always drawn. Like-named read-outs stand apart in the source and are kept apart here.",
  "data": [
    {"smiles": "O=C1CCC(N2C(=O)c3ccc(C4(O)CCN(C5CCc6ncccc65)CC4)cc3C2=O)C(=O)N1", "note": "(stereo not shown) [Compound 7, 5-(1-{5H,6H,7H-cyclopenta[b]pyridin-5-yl}-4-hydroxypiperidin-4-yl)-2-(2,6-dioxopiperidin-3-yl)-2,3-dihydro-1H-isoindole-1,3-dione, HCl salt]", "values": [
      {"measurement": "DC50", "setting": "IKZF2", "result": 9, "unit": "nM"},
      {"measurement": "Dmax at 30 µM", "setting": "IKZF2", "result": 90, "unit": "%"},
      {"measurement": "IC50", "setting": "hERG", "result": "> 30000", "unit": "nM"}
    ]},
    {"smiles": "CC1CC(O)(c2ccc3c(c2)C(=O)N(C2CCC(=O)NC2=O)C3=O)CCN1Cc1ccccc1", "note": "(stereo not shown) [Compound 15, 5-(1-benzyl-4-hydroxy-2-methylpiperidin-4-yl)-2-(2,6-dioxopiperidin-3-yl)-2,3-dihydro-1H-isoindole-1,3-dione]", "values": [
      {"measurement": "DC50", "setting": "IKZF2", "result": 12, "unit": "nM"},
      {"measurement": "Dmax at 30 µM", "setting": "IKZF2", "result": 66, "unit": "%"},
      {"measurement": "IC50", "setting": "hERG", "result": "> 30000", "unit": "nM"}
    ]},
    {"smiles": "O=C1CCC(N2C(=O)c3ccc(C4(O)CCN(Cc5ccc(F)c(F)c5)CC4)cc3C2=O)C(=O)N1", "note": "(stereo not shown) [Compound 60, 5-{1-[(3,4-difluorophenyl)methyl]-4-hydroxypiperidin-4-yl}-2-(2,6-dioxopiperidin-3-yl)-2,3-dihydro-1H-isoindole-1,3-dione, HCl salt]", "values": [
      {"measurement": "DC50", "setting": "IKZF2", "result": 6, "unit": "nM"},
      {"measurement": "Dmax at 30 µM", "setting": "IKZF2", "result": 80, "unit": "%"},
      {"measurement": "IC50", "setting": "hERG", "result": 23000, "unit": "nM"}
    ]},
    {"smiles": "O=C1CCC(N2C(=O)c3ccc(C4(O)CCN(Cc5ccc6scnc6c5)CC4)cc3C2=O)C(=O)N1", "note": "(stereo not shown) [Compound 111, 5-{1-[(1,3-benzothiazol-5-yl)methyl]-4-hydroxypiperidin-4-yl}-2-(2,6-dioxopiperidin-3-yl)-2,3-dihydro-1H-isoindole-1,3-dione, HCl salt]", "values": [
      {"measurement": "DC50", "setting": "IKZF2", "result": 5, "unit": "nM"},
      {"measurement": "Dmax at 30 µM", "setting": "IKZF2", "result": 83, "unit": "%"},
      {"measurement": "IC50", "setting": "hERG", "result": "> 30000", "unit": "nM"}
    ]},
    {"smiles": "O=C1CCC(N2C(=O)c3ccc(C4(O)CCN(Cc5ccc(F)cc5)CC4)c(F)c3C2=O)C(=O)N1", "note": "(stereo not shown) [Compound 132, 2-(2,6-dioxopiperidin-3-yl)-4-fluoro-5-(1-(4-fluorobenzyl)-4-hydroxypiperidin-4-yl)isoindoline-1,3-dione]", "values": [
      {"measurement": "DC50", "setting": "IKZF2", "result": 7, "unit": "nM"},
      {"measurement": "Dmax at 30 µM", "setting": "IKZF2", "result": 79, "unit": "%"},
      {"measurement": "IC50", "setting": "hERG; human", "result": 30000, "unit": "nM"}
    ]},
    {"smiles": "CCCN1CCC(O)(c2ccc3c(c2F)C(=O)N(C2CCC(=O)NC2=O)C3=O)CC1", "note": "(stereo not shown) [Compound 148, 2-(2,6-dioxopiperidin-3-yl)-4-fluoro-5-(4-hydroxy-1-propylpiperidin-4-yl)-2,3-dihydro-1H-isoindole-1,3-dione, HCl salt]", "values": [
      {"measurement": "DC50", "setting": "IKZF2", "result": 30, "unit": "nM"},
      {"measurement": "Dmax at 30 µM", "setting": "IKZF2", "result": 73, "unit": "%"}
    ]},
    {"smiles": "O=C1CCC(N2C(=O)c3ccc(C4(O)CCN(CC(O)c5ccccc5)CC4)cc3C2=O)C(=O)N1", "note": "(stereo not shown) [Compound 149, 2-(2,6-dioxopiperidin-3-yl)-5-(4-hydroxy-1-(2-hydroxy-2-phenylethyl)piperidin-4-yl)isoindoline-1,3-dione]", "values": [
      {"measurement": "DC50", "setting": "IKZF2", "result": 22, "unit": "nM"},
      {"measurement": "Dmax at 30 µM", "setting": "IKZF2", "result": 76, "unit": "%"}
    ]}
  ]
}
